# Measurements taken from ChEMBL document CHEMBL4765382, “Novel anilide and benzylamide derivatives of arylpiperazinylalkanoic acids as 5-HT/5-HT receptor antagonists and phosphodiesterase 4/7 inhibitors with procognitive and antidepressant activity” (Eur J Med Chem, 2020).
# The source made the active and inactive calls. The rule behind the calls is not given here.
# Experiments:
# [1] = biological target: 3',5'-cyclic-AMP phosphodiesterase 4B (Homo sapiens, UniProt Q07343); assay: Inhibition of recombinant human PDE4B expressed in Sf9 cells measured after 10 mins by luminescence based assay
# [2] = biological target: T1, 5-hydroxytryptamine receptor 1A (Homo sapiens, UniProt P08908); assay: Displacement of [3H]8-OH-DPAT from human 5HT1A receptor expressed in HEK293 cells measured after 1 hr by microbeta counting method; assay type: cell-based
# T1 sequence (P08908 whole entry): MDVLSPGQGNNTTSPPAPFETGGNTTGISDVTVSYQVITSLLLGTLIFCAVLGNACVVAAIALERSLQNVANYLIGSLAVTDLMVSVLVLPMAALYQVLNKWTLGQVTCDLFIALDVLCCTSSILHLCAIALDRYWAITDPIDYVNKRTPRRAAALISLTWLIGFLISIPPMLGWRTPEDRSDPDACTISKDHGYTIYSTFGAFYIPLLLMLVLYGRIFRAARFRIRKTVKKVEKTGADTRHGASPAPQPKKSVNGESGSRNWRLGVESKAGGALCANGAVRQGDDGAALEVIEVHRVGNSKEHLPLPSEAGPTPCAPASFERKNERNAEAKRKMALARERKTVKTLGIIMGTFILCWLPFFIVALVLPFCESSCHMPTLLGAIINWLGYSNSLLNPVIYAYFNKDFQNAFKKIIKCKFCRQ
# [3] = biological target: T2, 5-hydroxytryptamine receptor 7 (Homo sapiens, UniProt P34969); assay: Displacement of [3H]-5-CT from human 5HT7 receptor expressed in HEK293 cells measured after 1 hr by microbeta counting method; assay type: cell-based
# [4] = biological target: High affinity 3',5'-cyclic-AMP phosphodiesterase 7A (Homo sapiens, UniProt Q13946); assay: Inhibition of recombinant human PDE7A expressed in Sf9 cells measured after 10 mins by luminescence based assay
# [5] = biological target: T1, 5-hydroxytryptamine receptor 1A; assay: Binding affinity to 5HT-1A receptor (unknown origin)
# [6] = biological target: T2, 5-hydroxytryptamine receptor 7; assay: Binding affinity to 5HT7 receptor (unknown origin)
# [7] = Effective permeability of the compound at 200 uM incubated for 5 hrs by PAMPA based UPLC/MS analysis; assay type: ADME; conditions: read-out: Peff
# [8] = Metabolic stability of the compound in rat liver microsomes assessed as parent compound remaining at 50 uM preincubated for 5 mins followed by incubation with NADPH regenerating system for 120 mins by LC/MS analysis; assay type: ADME, Microsome; conditions: read-out: Stabilty
# Rattus norvegicus = assay: Antidepressant-like activity in Wistar rat assessed as reduction in immobility time at 20 mg/kg, ip measured after 30 mins by Forced swimming test; assay type: functional; conditions: 0.5 h
# [9] = Toxicity in Wistar rat assessed as total ambulations at 20 mg/kg, ip measured after 30 mins by open field test; assay type: organism-based; conditions: in vivo, 0.5 h
# [10] = Toxicity in Wistar rat assessed as total distance travelled at 20 mg/kg, ip measured after 30 mins by open field test (reference value: 1897.3 +/-98.6 cm); assay type: organism-based; conditions: in vivo, 0.5 h
# [11] = Toxicity in Wistar rat assessed as rearings at 20 mg/kg, ip measured after 30 mins by open field test; assay type: organism-based; conditions: in vivo, 0.5 h
# [12] = Toxicity in Wistar rat assessed as rearings at 3 to 10 mg/kg, ip measured after 60 mins by open field test; assay type: organism-based; conditions: in vivo, 1 h
# [13] = Toxicity in Wistar rat assessed as total ambulations at 3 to 10 mg/kg, ip measured after 60 mins by open field test; assay type: organism-based; conditions: in vivo, 1 h
# [14] = biological target: T2, 5-hydroxytryptamine receptor 7; assay: Agonist activity at recombinant human 5HT7 receptor expressed in CHO-K1 cells co-transfected with beta-lactamase reporter gene assessed as cAMP accumulation measured after 1 hr by LANCE TR-FRET assay; assay type: functional, cell-based
# [15] = biological target: T2, 5-hydroxytryptamine receptor 7; assay: Antagonist activity at recombinant human 5HT7 receptor expressed in CHO-K1 cells co-transfected with beta-lactamase reporter gene assessed as inhibition of serotonin-induced cAMP accumulation measured after 1 hr by LANCE TR-FRET assay; assay type: functional, cell-based; conditions: filed as antagonist
# Chain of 3',5'-cyclic-AMP phosphodiesterase 4B (Q07343 whole entry): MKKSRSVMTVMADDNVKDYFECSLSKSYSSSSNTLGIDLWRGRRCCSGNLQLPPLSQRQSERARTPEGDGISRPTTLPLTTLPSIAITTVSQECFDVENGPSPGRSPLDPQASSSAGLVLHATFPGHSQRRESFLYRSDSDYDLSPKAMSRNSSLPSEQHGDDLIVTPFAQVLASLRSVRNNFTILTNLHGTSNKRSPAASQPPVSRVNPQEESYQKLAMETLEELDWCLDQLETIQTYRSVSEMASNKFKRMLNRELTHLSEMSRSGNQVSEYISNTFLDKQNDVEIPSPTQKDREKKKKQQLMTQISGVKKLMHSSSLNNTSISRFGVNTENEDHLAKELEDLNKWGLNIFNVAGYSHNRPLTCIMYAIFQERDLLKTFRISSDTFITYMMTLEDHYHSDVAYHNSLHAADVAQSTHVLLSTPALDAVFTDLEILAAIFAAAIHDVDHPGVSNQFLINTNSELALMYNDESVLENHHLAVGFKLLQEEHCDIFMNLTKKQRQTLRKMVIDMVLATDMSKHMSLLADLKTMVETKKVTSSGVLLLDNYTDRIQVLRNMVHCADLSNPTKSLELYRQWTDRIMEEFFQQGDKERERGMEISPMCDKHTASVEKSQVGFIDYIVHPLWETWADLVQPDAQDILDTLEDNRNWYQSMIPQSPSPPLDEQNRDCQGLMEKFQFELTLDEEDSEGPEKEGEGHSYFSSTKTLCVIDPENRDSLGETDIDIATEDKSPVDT
# T2 sequence (P34969 whole entry): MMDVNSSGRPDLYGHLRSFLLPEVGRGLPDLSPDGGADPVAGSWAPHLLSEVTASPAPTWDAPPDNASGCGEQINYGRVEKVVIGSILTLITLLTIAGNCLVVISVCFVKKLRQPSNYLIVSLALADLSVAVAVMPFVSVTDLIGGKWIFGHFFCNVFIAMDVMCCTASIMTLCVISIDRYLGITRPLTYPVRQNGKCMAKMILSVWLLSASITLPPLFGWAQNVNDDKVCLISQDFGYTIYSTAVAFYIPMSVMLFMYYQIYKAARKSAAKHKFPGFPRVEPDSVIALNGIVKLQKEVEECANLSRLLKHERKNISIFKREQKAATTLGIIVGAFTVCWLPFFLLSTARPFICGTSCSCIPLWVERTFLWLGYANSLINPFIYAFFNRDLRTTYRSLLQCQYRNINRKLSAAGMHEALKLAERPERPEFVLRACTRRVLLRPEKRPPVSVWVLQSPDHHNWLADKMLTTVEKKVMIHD
# Chain of High affinity 3',5'-cyclic-AMP phosphodiesterase 7A (Q13946 whole entry): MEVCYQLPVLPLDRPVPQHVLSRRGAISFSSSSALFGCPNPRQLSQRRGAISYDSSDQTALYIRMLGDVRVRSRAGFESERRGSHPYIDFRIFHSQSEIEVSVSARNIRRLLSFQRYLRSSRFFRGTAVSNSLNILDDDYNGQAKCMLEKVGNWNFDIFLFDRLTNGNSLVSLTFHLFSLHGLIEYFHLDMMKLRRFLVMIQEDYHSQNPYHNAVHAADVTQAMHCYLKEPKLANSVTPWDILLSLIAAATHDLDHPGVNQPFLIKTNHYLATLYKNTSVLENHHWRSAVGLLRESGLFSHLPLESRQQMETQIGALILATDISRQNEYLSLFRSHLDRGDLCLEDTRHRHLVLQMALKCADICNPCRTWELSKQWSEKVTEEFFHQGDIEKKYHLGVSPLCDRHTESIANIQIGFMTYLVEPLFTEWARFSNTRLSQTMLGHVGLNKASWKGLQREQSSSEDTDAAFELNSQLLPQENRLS
Ki [2] [nM],Ki [3] [nM],Compound,also measured
14,323,CCC(C)c1ccc(NC(=O)CCCCN2CCN(c3ccccc3OC)CC2)cc1 (centres undefined),IC50 [1]: 169 µM; IC50 [4]: 126 µM
–,319,COc1ccccc1N1CCN(CCCC(=O)NCc2ccccc2O)CC1,–
69,260,CCC(C)c1ccc(NC(=O)CCCCCN2CCN(c3ccccc3OC)CC2)cc1 (centres undefined),–
21,496,COc1ccccc1N1CCN(CCCCC(=O)Nc2ccc(C(C)(C)C)cc2)CC1,IC50 [1]: 138 µM; IC50 [4]: > 200 µM
82,1870,COc1ccccc1N1CCN(CCCCC(=O)Nc2ccccc2C(N)=O)CC1,–
138,391,COc1ccccc1N1CCN(CCCCC(=O)NCc2ccc(C(C)(C)C)cc2)CC1,–
–,514,COc1ccccc1N1CCN(CCCCCC(=O)Nc2ccc(C(C)(C)C)cc2)CC1,–
–,927,COc1ccccc1N1CCN(CCCCC(=O)Nc2cccc(C(=O)OC(C)(C)C)c2)CC1,–
37,354,CCC(C)c1ccc(NC(=O)CCCN2CCN(c3ccccc3OC)CC2)cc1 (centres undefined),–
43,434,COc1ccccc1N1CCN(CCCCCC(=O)Nc2ccc(C(C)C)cc2)CC1,–
292,869,COc1ccccc1CNC(=O)CCCN1CCN(c2ccccc2OC)CC1,–
150,954,COc1ccccc1N1CCN(CCCC(=O)Nc2ccc(C(C)C)cc2)CC1,–
82,366,COc1ccccc1CNC(=O)CCCCN1CCN(c2ccccc2OC)CC1,–
–,328,COc1ccccc1N1CCN(CCCC(=O)Nc2cc(C(C)(C)C)ccc2O)CC1,IC50 [1]: 69 µM; IC50 [4]: 57 µM
–,–,O=S(=O)(NCCCCN1CCN(c2nsc3ccccc23)CC1)c1c[nH]c2ncccc12,Ki [5]: 78 nM; Ki [6]: 93 nM
405,471,COc1ccccc1N1CCN(CCCC(=O)Nc2ccccc2O)CC1,–
34,141,COc1ccccc1N1CCN(CCCCCC(=O)Nc2cccc(C(C)C)c2)CC1,–
–,154,COc1ccccc1N1CCN(CCCCCC(=O)Nc2cc(C(C)(C)C)ccc2O)CC1,–

Ki [2] [nM],Ki [3] [nM],Compound,also measured
526,1140,COc1ccccc1N1CCN(CCCC(=O)Nc2ccccc2C(N)=O)CC1,–
53,190,COc1ccccc1N1CCN(CCCCCC(=O)Nc2cccc(C(C)(C)C)c2)CC1,–
125,799,COc1ccccc1N1CCN(CCCCCC(=O)Nc2ccc(C(=O)OC(C)(C)C)cc2)CC1,–
95,254,COc1ccccc1N1CCN(CCCCCC(=O)Nc2ccccc2O)CC1,–
31,300,COc1ccccc1N1CCN(CCCCC(=O)Nc2ccccc2O)CC1,–
70,289,COc1ccccc1N1CCN(CCCCCC(=O)NCc2ccccc2O)CC1,–
61,159,COc1ccccc1N1CCN(CCCCC(=O)Nc2cc(C(C)(C)C)ccc2O)CC1,IC50 [1]: 36.5 µM; IC50 [4]: > 200 µM
–,151,COc1ccccc1N1CCN(CCCCC(=O)Nc2cccc(C(C)C)c2)CC1.Cl,"Papp at 5 h, 200 µM [7]: 8.6 ×10⁻⁶ cm/s; IC50 [1]: 88.1 µM; remaining at 2 h, 50 µM [8]: 6.5%; IC50 [4]: > 200 µM"
64,515,COc1ccccc1CNC(=O)CCCCCN1CCN(c2ccccc2OC)CC1,–
–,–,CN(C)CCC[C@@]1(c2ccc(F)cc2)OCc2cc(C#N)ccc21 [ESCITALOPRAM],inhibition in vivo at 20 mg/kg (Rattus norvegicus): 49%; Activity [9]: Non-Toxic; Activity [10]: 2058.5 cm; Activity [11]: Non-Toxic
–,1200,COc1ccccc1N1CCN(CCCC(=O)Nc2ccc(C(C)(C)C)cc2)CC1,IC50 [1]: 96 µM; IC50 [4]: 27 µM
–,–,COc1ccccc1N1CCN(CCCCC(=O)Nc2ccc(C(C)C)cc2)CC1.Cl,"Papp at 5 h, 200 µM [7]: 10.5 ×10⁻⁶ cm/s; IC50 [1]: 80.4 µM; Activity [12]: Non-Toxic; remaining at 2 h, 50 µM [8]: 90.1%; Activity [13]: Non-Toxic; IC50 [4]: 151 µM"
224,130,COc1ccccc1N1CCN(CCCC(=O)Nc2cccc(C(C)(C)C)c2)CC1,–
287,3280,COc1ccccc1N1CCN(CCCC(=O)Nc2ccc(C(=O)OC(C)(C)C)cc2)CC1,–
–,–,CCn1cc(C(=O)O)c(=O)c2cc(F)c(N3CCNCC3)cc21 [NORFLOXACIN],"Papp at 5 h, 200 µM [7]: 0.6 ×10⁻⁶ cm/s"
–,343,COc1ccccc1N1CCN(CCCCC(=O)NCc2ccccc2O)CC1,–
16,75,COc1ccccc1N1CCN(CCCCC(=O)Nc2cccc(C(C)(C)C)c2)CC1.Cl,"Activity [14]: inactive; Papp at 5 h, 200 µM [7]: 4.8 ×10⁻⁶ cm/s; IC50 [1]: 130 µM; remaining at 2 h, 50 µM [8]: 23.8%; Kb [15]: 54 nM; IC50 [4]: > 200 µM"
187,157,COc1ccccc1N1CCN(CCCC(=O)Nc2cccc(C(C)C)c2)CC1,–
